According to ChEMBL document CHEMBL1152119, “4-(3-furyl)-2-(4-methylpiperazino)pyrimidines: Potent 5-HT2A receptor antagonists” (Bioorg Med Chem Lett, 1997):
pKi: −log10 of the molar value. Active and inactive are the calls of the source. No cut-off for these calls is given here.

Legend:
[1] = molecular target: T1, 5-hydroxytryptamine receptor 1A (Rattus norvegicus, UniProt P19327); experiment: Displacement of [3H]8-OH-DPAT binding to 5-hydroxytryptamine 1A receptor of rat brain hippocampus; assay type: tissue-based
T1 sequence (P19327 whole entry): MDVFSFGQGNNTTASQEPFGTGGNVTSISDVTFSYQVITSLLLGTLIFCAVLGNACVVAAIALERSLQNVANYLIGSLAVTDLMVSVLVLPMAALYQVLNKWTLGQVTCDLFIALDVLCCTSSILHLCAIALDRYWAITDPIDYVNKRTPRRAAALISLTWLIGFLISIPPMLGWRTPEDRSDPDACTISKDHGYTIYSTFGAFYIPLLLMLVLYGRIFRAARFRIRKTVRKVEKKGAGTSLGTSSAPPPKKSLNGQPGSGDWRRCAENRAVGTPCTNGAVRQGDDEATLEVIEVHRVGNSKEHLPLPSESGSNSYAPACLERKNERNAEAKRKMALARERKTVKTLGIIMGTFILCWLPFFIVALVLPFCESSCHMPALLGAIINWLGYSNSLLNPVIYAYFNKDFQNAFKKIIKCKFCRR

[2] = molecular target: 5-hydroxytryptamine receptor 2A (Rattus norvegicus, UniProt P14842); experiment: Displacement of [3H]ketanserin from 5-hydroxytryptamine 2A receptor of rat brain cortex
[3] = system: Rattus norvegicus; experiment: Percent activity for blocking of discriminative property stimulated by (+/-) DOI in rats at 15 mg/kg(+/-DOI 0.35 mg/kg administered to animals pretreated with compound); assay type: functional
[4] = system: Rattus norvegicus; experiment: Number of responding rats/number of rats to receive the compound at a dose of 15mg/kg, +/-DOI 0.35 mg/kg was administered intraperitoneally 60 min before test; 7/7; assay type: functional, organism-based; set-up: dose 0.35 mg/kg
[5] = system: Mus musculus; experiment: Inhibitory dose against (+/-)DOI induced (2.5 mg/kg, ip) head twitch response in mice; assay type: functional; details: read-out: ID50 (the source's name)
[6] = system: Rattus norvegicus; experiment: Number of responding rats/number of rats to receive the compound at a dose of 10 mg/kg, +/-DOI 0.35 mg/kg was administered intraperitoneally 60 min before test; 8/8; assay type: functional, organism-based
[7] = system: Rattus norvegicus; experiment: Percent activity for blocking of discriminative property stimulated by (+/-) DOI in rats at 10 mg/kg(+/-DOI 0.35 mg/kg administered to animals pretreated with compound); assay type: functional
[8] = system: Rattus norvegicus; experiment: Blocking of discriminative property stimulated by DOI in rats at 10 mg/kg dose, activity expressed as response/min(+/-DOI 0.35 mg/kg administered to animals pretreated with compound); assay type: functional
[9] = system: Rattus norvegicus; experiment: Blocking of discriminative property stimulated by DOI in rats at 15 mg/kg dose, activity expressed as response/min(+/-DOI 0.35 mg/kg administered to animals pretreated with compound); assay type: functional
[10] = system: Rattus norvegicus; experiment: Number of responding rats/number of rats to receive the compound at a dose of 20 mg/kg, +/-DOI 0.35 mg/kg was administered intraperitoneally 60 min before test; 6/6; assay type: functional, organism-based
[11] = system: Rattus norvegicus; experiment: Blocking of discriminative property stimulated by DOI in rats at 20 mg/kg dose, activity expressed as response/min(+/-DOI 0.35 mg/kg administered to animals pretreated with compound); assay type: functional
[12] = system: Rattus norvegicus; experiment: Percent activity for blocking of discriminative property stimulated by (+/-) DOI in rats at 20 mg/kg(+/-DOI 0.35 mg/kg administered to animals pretreated with compound); assay type: functional
[13] = system: Rattus norvegicus; experiment: Blocking of discriminative property stimulated by DOI in rats at 0.15 mg/kg dose, activity expressed as response/min(+/-DOI 0.35 mg/kg administered to animals pretreated with compound); assay type: functional
[14] = system: Rattus norvegicus; experiment: Percent activity for blocking of discriminative property stimulated by (+/-) DOI in rats at 0.35 mg/kg(+/-DOI 0.35 mg/kg administered to animals pretreated with compound); assay type: functional
[15] = system: Rattus norvegicus; experiment: Blocking of discriminative property stimulated by DOI in rats at 0.25 mg/kg dose, activity expressed as response/min(+/-DOI 0.35 mg/kg administered to animals pretreated with compound); assay type: functional
[16] = system: Rattus norvegicus; experiment: Blocking of discriminative property stimulated by DOI in rats at 0.35 mg/kg dose, activity expressed as response/min(+/-DOI 0.35 mg/kg administered to animals pretreated with compound); assay type: functional
[17] = system: Rattus norvegicus; experiment: Percent activity for blocking of discriminative property stimulated by (+/-) DOI in rats at 0.15 mg/kg(+/-DOI 0.35 mg/kg administered to animals pretreated with compound); assay type: functional
[18] = system: Rattus norvegicus; experiment: Percent activity for blocking of discriminative property stimulated by (+/-) DOI in rats at 0.25 mg/kg(+/-DOI 0.35 mg/kg administered to animals pretreated with compound); assay type: functional
[19] = system: Rattus norvegicus; experiment: Number of responding rats/number of rats to receive the compound at a dose of 1 mg/kg, +/-DOI 0.35 mg/kg was administered intraperitoneally 60 min before test; 9/9; assay type: functional, organism-based
[20] = system: Rattus norvegicus; experiment: Percent activity for blocking of discriminative property stimulated by (+/-) DOI in rats at 1 mg/kg(+/-DOI 0.35 mg/kg administered to animals pretreated with compound); assay type: functional
[21] = system: Rattus norvegicus; experiment: Blocking of discriminative property stimulated by DOI in rats at 1 mg/kg dose, activity expressed as response/min(+/-DOI 0.35 mg/kg administered to animals pretreated with compound); assay type: functional
[22] = system: Rattus norvegicus; experiment: Number of responding rats/number of rats to receive the compound at a dose of 10mg/kg, +/-DOI 0.35 mg/kg was administered intraperitoneally 60 min before test; 6/6; assay type: functional, organism-based; set-up: dose 0.35 mg/kg
[23] = system: Rattus norvegicus; experiment: Percent activity for blocking of discriminative property stimulated by (+/-) DOI in rats at 5 mg/kg(+/-DOI 0.35 mg/kg administered to animals pretreated with compound); assay type: functional
[24] = system: Rattus norvegicus; experiment: Blocking of discriminative property stimulated by DOI in rats at 5 mg/kg dose, activity expressed as response/min(+/-DOI 0.35 mg/kg administered to animals pretreated with compound); assay type: functional
[25] = system: Rattus norvegicus; experiment: Number of responding rats/number of rats to receive the compound at a dose of 5 mg/kg, +/-DOI 0.35 mg/kg was administered intraperitoneally 60 min before test; 9/9; assay type: functional, organism-based
[26] = system: Rattus norvegicus; experiment: Number of responding rats/number of rats to receive the compound at a dose of 10 mg/kg, +/-DOI 0.35 mg/kg was administered intraperitoneally 60 min before test; 7/7; assay type: functional, organism-based

Chain of 5-hydroxytryptamine receptor 2A (P14842 whole entry): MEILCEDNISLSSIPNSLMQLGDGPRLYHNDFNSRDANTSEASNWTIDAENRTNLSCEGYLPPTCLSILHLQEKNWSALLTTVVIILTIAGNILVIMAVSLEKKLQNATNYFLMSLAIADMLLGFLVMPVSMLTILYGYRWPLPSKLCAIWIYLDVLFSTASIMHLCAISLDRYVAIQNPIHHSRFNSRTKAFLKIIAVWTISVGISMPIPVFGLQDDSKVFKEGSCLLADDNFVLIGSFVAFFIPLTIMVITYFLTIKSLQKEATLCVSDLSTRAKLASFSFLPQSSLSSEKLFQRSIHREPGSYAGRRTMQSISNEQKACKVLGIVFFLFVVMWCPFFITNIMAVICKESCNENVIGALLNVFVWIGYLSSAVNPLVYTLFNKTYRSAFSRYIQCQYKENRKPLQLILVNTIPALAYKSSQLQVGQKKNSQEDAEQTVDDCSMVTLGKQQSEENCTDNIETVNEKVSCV

`Cc1cc(-c2ccoc2)nc(N2CCN(C)CC2)n1` showed a pKi [1] of 6.58 and a pKi [2] of 7.30.
In the case of `CN1CCN(c2nc(-c3ccoc3)cc(-c3cccs3)n2)CC1`, the Activity [3] was 11.2%, the No. of animals [4] was “Active” and the ED50 [5] was 4.2 mg/kg. The No. of animals [6] was “Active”, the Activity [7] was 47.3% and the Response [8] was 60.3 min⁻¹. The Response [9] was 66.2 min⁻¹, the pKi [1] was 5.65 and the pKi [2] was 8.00.
For `CN1CCN(c2nccc(-c3ccoc3)n2)CC1`, the No. of animals [10] was “Active”, the Response [11] was 84.7 min⁻¹ and the ED50 [5] was 9.7 mg/kg. It also gave an Activity [12] of 6.6%, a pKi [1] of 6.15 and a pKi [2] of 8.00.
With `COc1cc(CC(C)N)c(OC)cc1I` (racemic) the Response [13] was 81.3 min⁻¹, the Activity [14] was 100% and the Response [15] was 79.5 min⁻¹. It also gave a Response [16] of 74.7 min⁻¹, an Activity [17] of 37.5% and an Activity [18] of 63.1%.
`CN1CCN(c2nccc(-c3ccccc3)n2)CC1` showed a pKi [1] of 6.21 and a pKi [2] of 5.68.
`CN1CCN(c2nccc(-c3cccs3)n2)CC1` gave a pKi [1] of 6.32 and a pKi [2] of 6.68.
In the case of `CN1CCN(c2nccc(-c3ccco3)n2)CC1`, the pKi [1] was 6.09 and the pKi [2] was 6.13.
`CN1CCC(=C2c3ccccc3C=Cc3ccccc32)CC1` [CYPROHEPTADINE] was tested, and the ED50 [5] was 0.4 mg/kg, the No. of animals [19] was “Active” and the Activity [20] was 7.1%. For the same molecule, the Response [21] was 85.8 min⁻¹.
In the case of `CN1CCN(c2nc(-c3ccoc3)cc(-c3ccoc3)n2)CC1`, the ED50 [5] was 2.4 mg/kg, the Activity [7] was 2.8% and the No. of animals [22] was “Active”. For the same molecule, the Activity [23] was 31.1%, the Response [24] was 84.3 min⁻¹ and the Response [8] was 72.5 min⁻¹. The pKi [1] was 6.21, the pKi [2] was 8.10 and the No. of animals [25] was “Active”.
Work on `CN1CCN(c2nc(-c3cccs3)cc(-c3cccs3)n2)CC1` yielded a pKi [1] of 6.01 and a pKi [2] of 8.10.
In the case of `CN1CCN(c2nc(-c3ccccc3)cc(-c3ccoc3)n2)CC1`, the No. of animals [26] was “Active”, the ED50 [5] was 3.9 mg/kg and the Activity [7] was 7.2%. For the same molecule, the Response [8] was 86.6 min⁻¹, the pKi [1] was 5.87 and the pKi [2] was 8.05.
With `CN1CCN(c2nc(-c3ccoc3)cc(-c3ccco3)n2)CC1` the ED50 [5] was 2.7 mg/kg, the No. of animals [6] was “Active” and the Activity [7] was 4%. It also gave a Response [8] of 85.1 min⁻¹, a pKi [1] of 6.38 and a pKi [2] of 7.89.
